According to PMC10507085, “Pharmacological inhibition of TBK1/IKKε blunts immunopathology in a murine model of SARS-CoV-2 infection” (Nature Communications, 2023):

What was measured:
Experiment in all cases: biochemical
Parameters in all cases: KINOMEscan competition binding, DNA-tagged kinase against immobilised ligand, qPCR read-out
Settings in all cases: read-out: Percent Control
CABC1 = biological target: T1, CABC1 (Homo sapiens, UniProt Q8NI60)
T1 construct: gene COQ8A

CDK4 = CDK4 (Homo sapiens, UniProt P11802)
CDKL2 = CDKL2 (Homo sapiens, UniProt Q92772)
CSNK1A1 = CSNK1A1 (Homo sapiens, UniProt P48729)
CSNK2A1 = CSNK2A1 (Homo sapiens, UniProt P68400)
DAPK2 = DAPK2 (Homo sapiens, UniProt Q9UIK4)
EIF2AK2 = EIF2AK2 (Homo sapiens, UniProt P19525)
FES = FES (Homo sapiens, UniProt P07332)
FLT3-autoinhibited = FLT3-autoinhibited (Homo sapiens, UniProt P36888)
FYN = FYN (Homo sapiens, UniProt P06241)
[1] = biological target: T2, JAK1(JH1domain-catalytic) (Homo sapiens, UniProt P23458)
T2 construct: JH1 domain catalytic

[2] = biological target: T3, JAK3(JH1domain-catalytic) (Homo sapiens, UniProt P52333)
T3 construct: JH1 domain catalytic

MAP4K1 = MAP4K1 (Homo sapiens, UniProt Q92918)
NEK11 = NEK11 (Homo sapiens, UniProt Q8NG66)
NEK3 = NEK3 (Homo sapiens, UniProt P51956)
PAK1 = PAK1 (Homo sapiens, UniProt Q13153)
PAK6 = PAK6 (Homo sapiens, UniProt Q9NQU5)
PLK2 = PLK2 (Homo sapiens, UniProt Q9NYY3)
PRKACA = PRKACA (Homo sapiens, UniProt P17612)
WNK2 = WNK2 (Homo sapiens, UniProt Q9Y3S1)

Sequence of FLT3-autoinhibited (P36888 whole entry): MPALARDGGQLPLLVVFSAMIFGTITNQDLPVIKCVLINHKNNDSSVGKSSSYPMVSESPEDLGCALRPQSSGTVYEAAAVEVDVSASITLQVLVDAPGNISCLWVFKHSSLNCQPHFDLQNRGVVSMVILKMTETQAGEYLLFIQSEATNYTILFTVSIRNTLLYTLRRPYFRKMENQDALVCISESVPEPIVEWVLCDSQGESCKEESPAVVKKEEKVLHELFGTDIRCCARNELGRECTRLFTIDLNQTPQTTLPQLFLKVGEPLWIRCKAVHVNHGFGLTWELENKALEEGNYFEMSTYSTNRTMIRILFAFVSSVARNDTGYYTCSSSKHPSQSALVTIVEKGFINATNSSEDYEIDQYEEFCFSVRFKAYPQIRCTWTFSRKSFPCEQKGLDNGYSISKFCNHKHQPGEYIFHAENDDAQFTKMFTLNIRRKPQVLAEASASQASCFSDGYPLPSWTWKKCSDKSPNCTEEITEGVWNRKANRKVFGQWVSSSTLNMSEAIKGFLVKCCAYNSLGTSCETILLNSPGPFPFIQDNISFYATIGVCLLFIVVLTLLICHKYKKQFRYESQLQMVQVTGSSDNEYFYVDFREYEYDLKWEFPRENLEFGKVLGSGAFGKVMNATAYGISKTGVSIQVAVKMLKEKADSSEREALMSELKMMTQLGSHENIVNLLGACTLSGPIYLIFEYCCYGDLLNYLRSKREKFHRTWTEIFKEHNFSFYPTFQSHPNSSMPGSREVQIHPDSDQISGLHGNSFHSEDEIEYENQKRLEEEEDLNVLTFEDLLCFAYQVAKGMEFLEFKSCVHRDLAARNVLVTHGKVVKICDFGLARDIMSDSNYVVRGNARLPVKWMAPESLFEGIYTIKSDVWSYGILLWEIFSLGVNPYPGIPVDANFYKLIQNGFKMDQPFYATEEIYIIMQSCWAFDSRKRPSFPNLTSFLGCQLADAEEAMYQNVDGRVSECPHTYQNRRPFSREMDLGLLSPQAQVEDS
T1 sequence (Q8NI60 whole entry): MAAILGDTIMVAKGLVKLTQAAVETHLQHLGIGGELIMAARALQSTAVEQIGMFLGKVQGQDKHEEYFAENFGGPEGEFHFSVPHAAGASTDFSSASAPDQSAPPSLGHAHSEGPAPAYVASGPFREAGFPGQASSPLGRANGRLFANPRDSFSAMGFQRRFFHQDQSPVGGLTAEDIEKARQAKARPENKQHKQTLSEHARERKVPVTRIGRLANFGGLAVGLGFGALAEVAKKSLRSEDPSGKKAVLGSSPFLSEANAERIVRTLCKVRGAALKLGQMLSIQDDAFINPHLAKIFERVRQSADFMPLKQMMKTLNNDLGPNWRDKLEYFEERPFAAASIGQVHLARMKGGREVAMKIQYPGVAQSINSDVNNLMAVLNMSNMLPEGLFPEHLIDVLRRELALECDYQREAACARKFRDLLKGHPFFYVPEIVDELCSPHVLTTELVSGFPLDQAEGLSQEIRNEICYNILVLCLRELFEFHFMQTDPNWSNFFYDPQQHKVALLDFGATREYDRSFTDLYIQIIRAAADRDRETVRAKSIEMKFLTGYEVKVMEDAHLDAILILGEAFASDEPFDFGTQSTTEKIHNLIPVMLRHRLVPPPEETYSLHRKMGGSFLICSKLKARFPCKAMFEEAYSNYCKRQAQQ
Sequence of PAK1 (Q13153 whole entry): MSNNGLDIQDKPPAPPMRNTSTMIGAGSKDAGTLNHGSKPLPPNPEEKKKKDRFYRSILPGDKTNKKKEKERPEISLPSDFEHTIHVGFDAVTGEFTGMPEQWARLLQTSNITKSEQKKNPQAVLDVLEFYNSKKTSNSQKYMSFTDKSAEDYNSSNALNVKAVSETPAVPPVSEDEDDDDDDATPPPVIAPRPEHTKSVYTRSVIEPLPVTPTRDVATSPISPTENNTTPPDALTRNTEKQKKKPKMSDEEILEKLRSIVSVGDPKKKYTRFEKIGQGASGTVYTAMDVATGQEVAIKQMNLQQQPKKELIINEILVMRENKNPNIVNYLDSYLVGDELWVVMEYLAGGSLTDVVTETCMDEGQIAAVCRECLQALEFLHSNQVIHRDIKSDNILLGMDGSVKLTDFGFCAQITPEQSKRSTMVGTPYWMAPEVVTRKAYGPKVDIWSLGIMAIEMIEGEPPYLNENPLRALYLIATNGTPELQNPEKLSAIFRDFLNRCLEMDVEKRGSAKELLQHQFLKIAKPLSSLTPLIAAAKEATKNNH
Sequence of PAK6 (Q9NQU5 whole entry): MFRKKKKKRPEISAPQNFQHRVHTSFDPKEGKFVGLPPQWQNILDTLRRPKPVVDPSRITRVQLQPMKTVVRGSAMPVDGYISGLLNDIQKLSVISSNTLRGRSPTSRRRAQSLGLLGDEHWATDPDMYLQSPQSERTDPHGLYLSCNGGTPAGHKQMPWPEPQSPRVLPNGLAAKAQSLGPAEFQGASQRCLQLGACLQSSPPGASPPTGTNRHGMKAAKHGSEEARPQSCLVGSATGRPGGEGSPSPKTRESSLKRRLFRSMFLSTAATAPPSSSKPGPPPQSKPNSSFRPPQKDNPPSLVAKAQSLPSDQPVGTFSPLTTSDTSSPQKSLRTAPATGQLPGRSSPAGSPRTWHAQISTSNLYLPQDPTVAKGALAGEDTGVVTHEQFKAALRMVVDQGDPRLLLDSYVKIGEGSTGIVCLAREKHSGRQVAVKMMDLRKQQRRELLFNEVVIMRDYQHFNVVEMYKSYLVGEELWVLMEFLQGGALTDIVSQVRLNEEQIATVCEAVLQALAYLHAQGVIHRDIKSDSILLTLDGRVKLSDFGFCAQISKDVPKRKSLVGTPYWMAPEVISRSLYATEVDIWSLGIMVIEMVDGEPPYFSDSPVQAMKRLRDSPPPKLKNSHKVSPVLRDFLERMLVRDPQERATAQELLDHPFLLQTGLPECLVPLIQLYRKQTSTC
Sequence of EIF2AK2 (P19525 whole entry): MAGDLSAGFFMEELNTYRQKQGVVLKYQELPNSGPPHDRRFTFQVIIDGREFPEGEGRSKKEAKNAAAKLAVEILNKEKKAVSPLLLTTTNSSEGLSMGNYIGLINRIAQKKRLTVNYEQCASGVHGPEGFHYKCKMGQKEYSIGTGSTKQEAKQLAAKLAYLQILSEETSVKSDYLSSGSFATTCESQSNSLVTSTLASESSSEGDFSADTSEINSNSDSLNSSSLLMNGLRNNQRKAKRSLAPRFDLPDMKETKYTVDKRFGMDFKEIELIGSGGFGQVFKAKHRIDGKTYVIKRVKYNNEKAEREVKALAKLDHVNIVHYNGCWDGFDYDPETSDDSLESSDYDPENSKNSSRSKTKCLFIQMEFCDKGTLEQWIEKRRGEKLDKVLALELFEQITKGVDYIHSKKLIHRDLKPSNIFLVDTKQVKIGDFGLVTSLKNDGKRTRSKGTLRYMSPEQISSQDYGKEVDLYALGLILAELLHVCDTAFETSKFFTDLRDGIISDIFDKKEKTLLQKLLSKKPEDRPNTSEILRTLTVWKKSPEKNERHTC
Sequence of CSNK1A1 (P48729 whole entry): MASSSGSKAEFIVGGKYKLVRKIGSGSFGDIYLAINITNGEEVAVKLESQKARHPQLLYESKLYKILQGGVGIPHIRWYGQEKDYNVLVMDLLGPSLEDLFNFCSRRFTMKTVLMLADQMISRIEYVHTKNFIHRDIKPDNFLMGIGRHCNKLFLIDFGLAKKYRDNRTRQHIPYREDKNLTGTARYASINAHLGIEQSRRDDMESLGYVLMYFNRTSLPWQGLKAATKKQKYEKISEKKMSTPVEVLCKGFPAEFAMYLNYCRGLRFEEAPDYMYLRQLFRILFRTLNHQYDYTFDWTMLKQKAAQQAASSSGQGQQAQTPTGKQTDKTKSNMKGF
Sequence of FYN (P06241 whole entry): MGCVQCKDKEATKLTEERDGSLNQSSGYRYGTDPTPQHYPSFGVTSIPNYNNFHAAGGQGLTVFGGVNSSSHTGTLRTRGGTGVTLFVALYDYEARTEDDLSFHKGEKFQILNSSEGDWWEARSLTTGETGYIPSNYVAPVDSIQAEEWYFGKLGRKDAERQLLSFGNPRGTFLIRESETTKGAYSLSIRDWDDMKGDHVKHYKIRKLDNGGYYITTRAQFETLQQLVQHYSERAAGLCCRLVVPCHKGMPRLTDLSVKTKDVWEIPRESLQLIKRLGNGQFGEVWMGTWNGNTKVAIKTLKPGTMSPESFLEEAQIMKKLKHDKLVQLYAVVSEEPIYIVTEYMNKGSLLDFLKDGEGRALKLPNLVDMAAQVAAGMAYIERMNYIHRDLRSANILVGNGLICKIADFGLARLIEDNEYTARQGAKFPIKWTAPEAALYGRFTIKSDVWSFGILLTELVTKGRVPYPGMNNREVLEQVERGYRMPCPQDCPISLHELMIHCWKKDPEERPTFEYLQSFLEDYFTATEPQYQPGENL
Sequence of NEK3 (P51956 whole entry): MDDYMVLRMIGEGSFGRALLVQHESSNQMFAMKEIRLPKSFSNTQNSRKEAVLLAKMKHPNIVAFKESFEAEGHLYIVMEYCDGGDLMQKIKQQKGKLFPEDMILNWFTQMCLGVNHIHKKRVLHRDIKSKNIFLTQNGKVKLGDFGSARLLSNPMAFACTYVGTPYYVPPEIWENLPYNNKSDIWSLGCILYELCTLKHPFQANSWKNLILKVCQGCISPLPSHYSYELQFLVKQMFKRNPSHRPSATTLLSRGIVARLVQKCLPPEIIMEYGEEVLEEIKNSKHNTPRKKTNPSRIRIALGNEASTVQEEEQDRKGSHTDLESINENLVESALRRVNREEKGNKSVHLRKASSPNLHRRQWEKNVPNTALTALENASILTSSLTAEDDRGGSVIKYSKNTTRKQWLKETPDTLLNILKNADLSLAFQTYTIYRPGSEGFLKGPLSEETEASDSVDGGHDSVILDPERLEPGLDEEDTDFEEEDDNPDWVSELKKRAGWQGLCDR

Oc1ccc(C2=Cc3ccc(O)cc3OC2)cc1 [compound 1, idronoxil]
remaining binding at 10 µM (CABC1): 78%
remaining binding at 10 µM (CDK4): 100%
remaining binding at 10 µM (CDKL2): 100%
remaining binding at 10 µM (CSNK1A1): 86%
remaining binding at 10 µM (CSNK2A1): 49%
remaining binding at 10 µM (DAPK2): 56%
remaining binding at 10 µM (EIF2AK2): 85%
remaining binding at 10 µM (FES): 95%
remaining binding at 10 µM (FLT3-autoinhibited): 51%
remaining binding at 10 µM (FYN): 89%
remaining binding at 10 µM [1]: 93%
remaining binding at 10 µM [2]: 52%
remaining binding at 10 µM (MAP4K1): 78%
remaining binding at 10 µM (NEK11): 61%
remaining binding at 10 µM (NEK3): 80%
remaining binding at 10 µM (PAK1): 60%
remaining binding at 10 µM (PAK6): 100%
remaining binding at 10 µM (PLK2): 80%
remaining binding at 10 µM (PRKACA): 78%
remaining binding at 10 µM (WNK2): 51%
